According to the supplement of paper PMC10307832:

Key:
Experiment in all cases: relative viability (nuclei count vs DMSO), 5 days (fraction); higher = more cells survive
NCI-H1437 = system: NCI-H1437
How it was run: (§1)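 Lung cancer cell lines were pin-tool dosed in 1536-well plates on the day after seeding, with either a lone drug or a fixed anchor-drug dose plus five library-drug doses (not always all listed) in √10 steps. Nuclei were counted on 4× images after 5 days. Relative viability is the ratio of treated-well to vehicle-well nuclei counts, with each value a median of duplicate plates.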

NCI-H1666 = system: NCI-H1666
How it was run: as §1

NCI-H1792 = system: NCI-H1792
How it was run: as §1

NCI-H1975 = system: NCI-H1975
How it was run: as §1

NCI-H23 = system: NCI-H23
How it was run: as §1

NCI-H441 = system: NCI-H441
How it was run: as §1

NCI-H520 = system: NCI-H520
How it was run: as §1

NCI-H596 = system: NCI-H596
How it was run: as §1

NCI-H650 = system: NCI-H650
How it was run: as §1

NCI-H838 = system: NCI-H838
How it was run: as §1

SK-MES-1 = system: SK-MES-1
How it was run: as §1

With COc1cc(N2CCC(C(N)=O)CC2)ccc1Nc1nc(N)c(Cl)c(Nc2ccccc2S(=O)(=O)C(C)C)n1 [HG-5-88-01] + C[C@]1(O)C[C@@H](c2nc(-c3ccc4ccc(-c5ccccc5)nc4c3)c3c(N)nccn32)C1 [Linsitinib] (partner 1 µM) the relative viability (NCI-H1437; first compound 0.1265 µM) was 1.04, the relative viability (NCI-H1437; first compound 0.4 µM) was 0.926 and the relative viability (NCI-H1437; first compound 1.265 µM) was 0.996. For the same compound, the relative viability (NCI-H1437; first compound 4 µM) was 1.18, the relative viability (NCI-H1666; first compound 0.04 µM) was 0.958 and the relative viability (NCI-H1666; first compound 0.1265 µM) was 0.882. The relative viability (NCI-H1666; first compound 0.4 µM) was 0.93, the relative viability (NCI-H1666; first compound 1.265 µM) was 0.76 and the relative viability (NCI-H1666; first compound 4 µM) was 0.581. The relative viability (NCI-H1792; first compound 0.04 µM) was 0.711, the relative viability (NCI-H1792; first compound 0.1265 µM) was 0.513 and the relative viability (NCI-H1792; first compound 0.4 µM) was 0.515. It also gave a relative viability (NCI-H1792; first compound 1.265 µM) of 0.561, a relative viability (NCI-H1792; first compound 4 µM) of 0.818 and a relative viability (NCI-H1975; first compound 0.04 µM) of 0.995. For the same compound, the relative viability (NCI-H1975; first compound 0.1265 µM) was 1, the relative viability (NCI-H1975; first compound 0.4 µM) was 0.682 and the relative viability (NCI-H1975; first compound 1.265 µM) was 0.859. It also gave a relative viability (NCI-H1975; first compound 4 µM) of 0.497, a relative viability (NCI-H23; first compound 0.04 µM) of 0.628 and a relative viability (NCI-H23; first compound 0.1265 µM) of 0.621. For the same compound, the relative viability (NCI-H23; first compound 0.4 µM) was 0.652, the relative viability (NCI-H23; first compound 1.265 µM) was 0.73 and the relative viability (NCI-H23; first compound 4 µM) was 0.61. For the same compound, the relative viability (NCI-H441; first compound 0.04 µM) was 0.662, the relative viability (NCI-H441; first compound 0.1265 µM) was 0.536 and the relative viability (NCI-H441; first compound 0.4 µM) was 0.821. For the same compound, the relative viability (NCI-H441; first compound 1.265 µM) was 0.399, the relative viability (NCI-H441; first compound 4 µM) was 0.586 and the relative viability (NCI-H520; first compound 0.04 µM) was 0.926. It also gave a relative viability (NCI-H520; first compound 0.1265 µM) of 0.832, a relative viability (NCI-H520; first compound 0.4 µM) of 0.689 and a relative viability (NCI-H520; first compound 1.265 µM) of 1.18. The relative viability (NCI-H520; first compound 4 µM) was 1.14, the relative viability (NCI-H596; first compound 0.04 µM) was 1 and the relative viability (NCI-H596; first compound 0.1265 µM) was 1.12. It also gave a relative viability (NCI-H596; first compound 0.4 µM) of 1.2, a relative viability (NCI-H596; first compound 1.265 µM) of 1.13 and a relative viability (NCI-H596; first compound 4 µM) of 1.17. It also gave a relative viability (NCI-H650; first compound 0.04 µM) of 1.01, a relative viability (NCI-H650; first compound 0.1265 µM) of 0.985 and a relative viability (NCI-H650; first compound 0.4 µM) of 0.835. The relative viability (NCI-H650; first compound 1.265 µM) was 0.936, the relative viability (NCI-H650; first compound 4 µM) was 0.492 and the relative viability (NCI-H838; first compound 0.04 µM) was 0.972. For the same compound, the relative viability (NCI-H838; first compound 0.1265 µM) was 1.07, the relative viability (NCI-H838; first compound 0.4 µM) was 0.885 and the relative viability (NCI-H838; first compound 1.265 µM) was 0.915. For the same compound, the relative viability (NCI-H838; first compound 4 µM) was 0.956, the relative viability (SK-MES-1; first compound 0.04 µM) was 1.02 and the relative viability (SK-MES-1; first compound 0.1265 µM) was 1.03. For the same compound, the relative viability (SK-MES-1; first compound 0.4 µM) was 1.08, the relative viability (SK-MES-1; first compound 1.265 µM) was 1.04 and the relative viability (SK-MES-1; first compound 4 µM) was 1.14.
